“Also recorded” adds a separate entry of the source.
Experiments:
[1] = test system: postoperative pain after removal of third molar teeth
From the text: This is a subjective measurement of pain, in which persons participating in the study are requested to indicate a level of pain at a certain time on a 10-cm line. The patient makes an indication on the line at a value from 0 to 10 indicating the level of pain felt at that time (where 0 indicates no pain and 10 indicates the worst pain imaginable to the patient). […] Tabulations were then made indicating increase or decrease in the pain level with time, with a negative value indicating a decrease in pain experienced by the patient and a positive value, an increase in such pain.
In this clinical trial, 88 patients underwent standardized surgery by the same oral surgeon for removal of third molar (“wisdom”) teeth, including at least one bony impacted mandibular third molar. Prior to surgery, patients received intravenous diazepam, nitrous oxide, and a local anesthetic (mepivacaine without vasoconstrictor to obtain a nerve block of short duration). […]
Baseline pain intensity was defined as the last VAS pain rating before administration of the test drug or drugs. VAS pain ratings were recorded at 20-minute intervals beginning ten minutes after administration of the test drug. The duration of the experiment, measured from the time of administration of the test drug, was three hours. […]

[2] = test system: postoperative pain after removal of third molar teeth; details: nalbuphine alone, data as reported in previous study; cited from earlier work
[3] = test system: postoperative pain after removal of impacted wisdom teeth; details: cited from earlier work
[4] = test system: postoperative pain after removal of impacted third molars; details: co-administration of 0.4 mg naloxone, human patients, cited from earlier work

C=CCN1CC[C@]23c4c5ccc(O)c4O[C@H]2C(=O)CC[C@@]3(O)[C@H]1C5 [naloxone]
gender differences in response (ANOVA) ([1]; Example 1, naloxone 0.4 mg alone or nalbuphine 5 mg + naloxone 0.4 mg, intravenous): lack of gender differences in response

Oc1ccc2c3c1O[C@H]1[C@@H](O)CC[C@@]4(O)[C@@H](C2)N(CC2CCC2)CC[C@]314 [nalbuphine]
gender x treatment interaction (ANOVA) [2]: significant gender x treatment interaction
effect on postoperative pain ([3]; nalbuphine 5 mg alone, men): unexpectedly increased postoperative pain; also recorded: produced a marked increase in pain in men; also recorded: pain-enhancing effect; also recorded: had produced an increase in pain
pain modulation effect versus placebo ([3]; nalbuphine 5 mg alone, women): did not produce pain modulation effects in women that were any better than those achieved by administration of a dose of placebo
sex difference of analgesic effects ([3]; women versus men): greater and more consistent in women than in men
pain relief (VAS), initial period ([1]; women, nalbuphine 2.5 mg alone vs naloxone 0.4 mg vs combination, nalbuphine-alone data from previous study): slightly better pain relief in women than either naloxone at 0.4 mg or the combination

CC(C)=CCN1CCC2(C)c3cc(O)ccc3CC1C2C (centres unmarked) [pentazocine]
effect of co-administered naloxone on analgesia produced by pentazocine ([4]; 60 mg pentazocine): potentiated

CN1CC[C@]23c4c5ccc(O)c4O[C@H]2[C@@H](O)C=C[C@H]3[C@H]1C5 [morphine]
effect of co-administered naloxone on analgesia produced by morphine ([4]; 8 mg morphine): attenuated
